pIC50: −log10 of the molar value.
Legend:
[1] = test system: SCG neurons; test: In vitro protection of SCG neurons from Taxol killing; assay type: cell-based, Sprague Dawley rats; conditions: Rattus norvegicus, Neuron, read-out: IC50, rescue from Taxol killing of SCG neurons
Experimental: Taxol™ is regularly used in breast cancer chemotherapy. In cancer cells Taxol™ binds to the cyto-skeletal protein tubulin, thereby inhibiting normal microtubular assembly and inducing cellular apoptosis. Despite its potency as an anti-tumour agent, Taxol™ is also toxic to neurons, inducing dose limiting peripheral neuropathies. The addition of Taxol™ (100 ng/mL) to cultured SCG neurons induces the degradation or loss of upwards of 80% of the neurons. The addition of selected compounds of Formula I to the cellular media, concurrently with Taxol™, protects upwards of 100% of the neurons, at drug concentrations ranging from 1 to 50 μM (see Example 74).
SCG neurons were isolated from day 1 neonatal Sprague Dawley rats, plated at a cell density of 10,000 cells/well, and incubated in Biowhittaker Utraculture containing 1% Penstrep, 1% L-glutamine, 0.7% ARAC, 3% rat serum, and NGF (50 ng/mL, Calomone Labs) at 37° C., under a 5% CO2 atmosphere. After 5 days the cells were treated with compound and Taxol™ (50 ng/mL). Viability was assessed 48 hours later using MTS (Promega) staining.

[2] = test system: SCG neurons; test: In vitro protection of SCG neurons from cisplatin killing; assay type: cell-based, Sprague Dawley rats; conditions: Rattus norvegicus, Neuron; cisplatin 3 μg/mL, 48 hours, MTS viability; read-out: IC50, protection of SCG neurons against cisplatin killing
Experimental: The mechanism of Cisplatin's anti-cancer action is not fully understood, but is believed to involve DNA binding and cleavage. Cisplatin is highly toxic to neurons. The addition of cisplatin (3 μg/mL) to cultured SCG neurons induces apoptosis of upwards of 80% of the neurons. The addition of selected compounds of Formula I to the cellular media, concurrently with cisplatin, protects upwards of 100% of the neurons, at drug concentrations ranging from 1 to 50 μM (see Example 75).
SCG neurons were isolated from day 1 neonatal Sprague Dawley rats, plated at a cell density of 10,000 cells/well, and incubated in Biowhittaker Utraculture containing 1% Penstrep, 1% L-glutamine, 0.7% ARAC, 3% rat serum, and NGF (50 ng/mL, Calomone Labs) at 37° C., under a 5% CO2 atmosphere. After 5 days the cells were treated with compound and cisplatin (3 μg/mL). Viability was assessed 48 hours later using MTS (Promega) staining.

[3] = Aqueous solubility in saline; assay type: physicochemical; conditions: saline or isotonic, acid salt
Experimental: Select compounds bearing a basic moiety display good aqueous solubility as the corresponding acid salt. For example, compound 56.2HCl is soluble at >100 mg/mL in saline, allowing for the ready application of these compounds via multiple routes of administration either oral or percutaneous.

[4] = test system: SK-N-AS; test: Sulforhodamine B assay, killing of SK-N-AS neuroblastoma cells; assay type: cell-based, Human
Experimental: (§1) Compound represented by Formula I were tested for anti-cancer properties using the sulforhodamine B assay. Human neuroblastomas SK-N-AS, and SH-SY5Y were plated in 96 well plates at a density of 15 000 cells/well. Daoy medulloblastoma cells were plated at a density of 2000 cells/well. Cells were cultured in RPMI supplemented with 5% fetal bovine serum and test compounds. After 72 hours of culture cell growth was assessed by sulforhodamine B. Cellular protein was precipitated and fixed with trichloroacetic acid and detected by incubation with sulforhodamine B. Bound dye solubilized in trizma base and was assessed by absorbance at 515 nm. Compound 28 caused either cell death or inhibited cellular proliferation of the SK-N-AS and SH-SY5Y neuroblastoma and daoy medulloblastoma cells with ED50s of 7, 5, and 2 µM, respectively.
(§2) Human neuroblastomas SK-N-AS, and SH-SY5Y were plated in 96 well plates at a density of 15 000 cells/well. Daoy medulloblastoma cells were plated at a density of 2000 cells/well. Cells were cultured in RPMI supplemented with 5% fetal bovine serum and test compound at various concentrations. After 72 hours of culture cell growth was assessed by sulforhodamine B. Cellular protein was precipitated and fixed with trichloroacetic acid and detected by incubation with sulforhodamine B. Bound dye solublized in trizma base and was assessed by absorbance at 515 nm.

[5] = test system: SH-SY5Y; test: Sulforhodamine B assay, killing of SH-SY5Y neuroblastoma cells; assay type: cell-based, Human
Experimental: as §1, §2

[6] = test system: Daoy medulloblastoma cells; test: Sulforhodamine B assay, killing of Daoy medulloblastoma cells; assay type: cell-based
Experimental: as §1, §2

[7] = test system: SCG neurons; test: Protection of SCG neurons from anti-NGF killing; assay type: cell-based, Sprague Dawley rats; conditions: Rattus norvegicus, Neuron; anti-NGF antibody, 48 hours, Alamar Blue viability; read-out: IC(50), rescue from anti-NGF killing of SCG neurons
Experimental: Neurotrophins are critical to the growth, development, and survival of small fiber neurons of the PNS. […] In a typical experiment SCG neurons are cultured in the presence of NGF, which induces survival and neurite out-growth. After 5 days the NGF is removed by either the addition of anti-NGF polyclonal antibody (Sigma) or by repeated washings (4 times) with NGF free media, resulting in the apoptosis of up to 90% of the neurons after 48 hours, as measured by MTS staining. The addition of selected compounds of Formula I to the final cellular media provides upwards of 100% protection, at drug concentrations ranging from 1 to 50 μM (see Example 73).
SCG neurons were isolated from day 1 neonatal Sprague Dawley rats, plated at a cell density of 5,000 cells/well, and incubated in Biowhittaker Utraculture containing 1% Penstrep, 1% L-glutamine, 0.7% ARAC, 3% rat serum, and NGF (50 ng/mL, Calomone Labs), at 37° C., under a 5% CO2 atmosphere. After 4 days the cells were treated with anti-NGF antibody (Sigma). At this time compound was added and the cells were maintained serum and NGF free for 48 hours, at which time viability was assessed using Alamar Blue (Medicorp) staining.

[8] = Taxol 50 ng/mL, 48 hours, MTS viability

| Structure (SMILES) | pIC50 [1, 8] | other results |
| --- | --- | --- |
| CN1CCN(CC[S+]([O-])c2nn3cc(-c4ccc5c(c4)OCCCO5)nc3s2)CC1 (stereo not drawn) [Compound 71] | 5.52 | – |
| NCCS(=O)(=O)c1nn2cc(-c3ccccc3)nc2s1 [Compound 44] | 5.70 | pIC50 [2]: 5.70 |
| O=S(=O)(Cc1ccccn1)c1nn2cc(-c3ccccc3)nc2s1 [Compound 6] | 5.82 | – |
| O=S(=O)(Cc1ccccc1)c1nn2cc(-c3c(F)c(F)c(F)c(F)c3F)nc2s1 [Compound 2] | – | pIC50 [2]: 6.10 |
| CN1CCCN(CC[S+]([O-])c2nn3cc(-c4ccccc4)nc3s2)CC1 (stereo not drawn) [Compound 56.2HCl] | – | solubility [3]: > 100 mg/mL |
| [O-][S+](Cc1ccncc1)c1nn2cc(-c3ccc(N4CCOCC4)cc3)nc2s1 (stereo not drawn) [Compound 30] | < 5.00 | – |
| O=S(=O)(Cc1ccccn1)c1nn2cc(-c3ccc(Oc4ccc(Cl)cc4)cc3)nc2s1 [Compound 16] | 6.30 | pIC50 [2]: 6.30 |
| [O-][S+](Cc1ccncc1)c1nn2cc(-c3ccc(Oc4ccc(Cl)cc4)cc3)nc2s1 (stereo not drawn) [Compound 17] | 5.70 | pIC50 [2]: 6.52 |
| CC(C)(C)OC(=O)NCC[S+]([O-])c1nn2cc(-c3ccccn3)nc2s1 (stereo not drawn) [Compound 35] | 5.70 | – |
| [O-][S+](Cc1ccncc1)c1nn2cc(-c3ccccc3)nc2s1 (stereo not drawn) [Compound 9] | 6.10 | – |
| [O-][S+](CCN1CCNCC1)c1nn2cc(-c3ccccc3)nc2s1 (stereo not drawn) [Compound 58] | 6.00 | – |
| CN(C)CC(=O)NCCS(=O)(=O)c1nn2cc(-c3ccc(F)cc3)nc2s1 [Compound 48] | 6.10 | – |
| O=S(=O)(Cc1ccccn1)c1nn2cc(-c3cccc(F)c3)nc2s1 [Compound 14] | 5.52 | – |
| [O-][S+](Cc1ccccc1)c1nn2cc(-c3c(F)c(F)c(F)c(F)c3F)nc2s1 (stereo not drawn) [Compound 1] | 6.00 | – |
| [O-][S+](CCN1CCC(O)CC1)c1nn2cc(-c3ccccc3)nc2s1 (stereo not drawn) [Compound 62] | 5.00 | – |
| O=S(=O)(Cc1ccncc1)c1nn2cc(-c3ccc(Oc4ccc(Cl)cc4)cc3)nc2s1 [Compound 18] | – | pIC50 [2]: 6.52 |
| CS(=O)(=O)NCCS(=O)(=O)c1nn2cc(-c3ccccc3)nc2s1 [Compound 45] | – | pIC50 [2]: 6.00 |
| [O-][S+](Cc1ccccn1)c1nn2cc(-c3ccc(Oc4ccc(Cl)cc4)cc3)nc2s1 (stereo not drawn) [Compound 15] | 6.00 | – |
| CC[S+]([O-])c1nn2cc(-c3ccccn3)nc2s1 (stereo not drawn) [Compound 37] | 5.70 | – |
| [O-][S+](CCN1CCOCC1)c1nn2cc(-c3ccc(F)cc3)nc2s1 (stereo not drawn) [Compound 28] | 5.30 | pIC50 [2]: 6.00; ED50, cell death or inhibited cellular proliferation ([4]; 72 hours, sulforhodamine B): 7000 nM; concentration at which the cell line is potently killed in vitro (as low as) ([4]; FIG. 1, sulforhodamine B): ≥ 5 µM; ED50, cell death or inhibited cellular proliferation ([5]; 72 hours, sulforhodamine B): 5 µM; concentration at which the cell line is potently killed in vitro (as low as) ([5]; FIG. 1, sulforhodamine B): ≥ 5 µM; ED50, cell death or inhibited cellular proliferation ([6]; 72 hours, sulforhodamine B): 2000 nM; concentration at which the cell line is potently killed in vitro (as low as) ([6]; FIG. 1, sulforhodamine B): ≥ 5 µM |
| O=S(=O)(Cc1cccnc1)c1nn2cc(-c3ccccc3)nc2s1 [Compound 8] | 6.10 | – |

| Structure (SMILES) | pIC50 [1, 8] | other results |
| --- | --- | --- |
| CN1CCN(CCC[S+]([O-])c2nn3cc(-c4ccccc4)nc3s2)CC1 (stereo not drawn) [Compound 69] | 6.00 | pIC50 [2]: 6.00 |
| O=S(=O)(CCc1ccccc1)c1nn2cc(-c3ccc(Oc4ccc(Cl)cc4)cc3)nc2s1 [Compound 4] | 6.00 | pIC50 [7]: 5.22 |
| [O-][S+](Cc1ccccn1)c1nn2cc(-c3ccccc3)nc2s1 (stereo not drawn) [Compound 5] | 6.00 | – |
| CN1CCN(CC[S+]([O-])c2nn3cc(-c4ccccc4)nc3s2)CC1 (stereo not drawn) [Compound 54] | 5.52 | – |
| CC[S+]([O-])c1nn2cc(-c3cnccn3)nc2s1 (stereo not drawn) [Compound 40] | 5.52 | – |
| [O-][S+](CCN1CCN(Cc2ccccc2)CC1)c1nn2c(-c3ccccc3)cnc2s1 (stereo not drawn) [Compound 66] | 5.00 | – |
| CC[S+]([O-])c1nn2cc(-c3ccc(OCCO)cc3)nc2s1 (stereo not drawn) [Compound 32] | 5.30 | – |
| CC(=O)N1CCN(CC[S+]([O-])c2nn3c(-c4ccccc4)cnc3s2)CC1 (stereo not drawn) [Compound 65] | 5.00 | – |
| CCS(=O)(=O)c1nn2cc(-c3ccc(OCCO)cc3)nc2s1 [Compound 33] | 6.00 | – |
| [O-][S+](CCc1ccccc1)c1nn2cc(-c3ccc(Oc4ccc(Cl)cc4)cc3)nc2s1 (stereo not drawn) [Compound 3] | 5.15 | pIC50 [7]: 5.10 |
| CC(=O)Nc1ccc(S(=O)(=O)c2nn3cc(-c4ccccn4)nc3s2)cc1 [Compound 52] | 6.00 | – |
| [O-][S+](CCN1CCC(Cc2ccccc2)CC1)c1nn2cc(-c3ccccc3)nc2s1 (stereo not drawn) [Compound 63] | – | pIC50 ([1]; 48 h): 5.00 |
| O=S(=O)(Cc1ccncc1)c1nn2cc(-c3ccccc3)nc2s1 [Compound 10] | 6.10 | – |
| CN(C)CC[S+]([O-])c1nn2cc(-c3cccc(F)c3)nc2s1 (stereo not drawn) [Compound 29] | 6.00 | pIC50 [2]: 5.52 |
| CC(=O)N1CCN(CC[S+]([O-])c2nn3cc(-c4ccccc4)nc3s2)CC1 (stereo not drawn) [Compound 60] | 6.00 | – |
| [O-][S+](Cc1ccccn1)c1nn2cc(-c3cccc(F)c3)nc2s1 (stereo not drawn) [Compound 13] | 6.00 | – |
| [O-][S+](CCc1ccccn1)c1nn2cc(-c3ccc(F)cc3)nc2s1 (stereo not drawn) [Compound 19] | 5.22 | pIC50 [2]: 6.10 |
| CN1CCCN(CC[S+]([O-])c2nn3cc(-c4ccccc4)nc3s2)CC1 (stereo not drawn) [Compound 56] | 6.00 | – |
| CN1CCN(CC[S+]([O-])c2nn3cc(-c4ccc(F)cc4)nc3s2)CC1 (stereo not drawn) [Compound 70] | 6.00 | pIC50 [2]: 6.00 |
| [O-][S+](CCN1CCCCC1)c1nn2cc(-c3ccccc3)nc2s1 (stereo not drawn) [Compound 61] | 5.00 | – |

— patent US20060135571A1, “Imidazo(2,1-b)-1,3,4-thiadiazole sulfoxides and sulfones” (priority 2003, published 2006)
